Data taken from US20240109924A1, “IP4-4,6 SUBSTITUTED DERIVATIVE COMPOUNDS” (SANIFIT THERAPEUTICS, S.A., priority 2021, published 2024).

What was measured:
[1] = In vitro inhibition of calcium phosphate crystallization in human plasma (spectrophotometric assay); format: biochemical; settings: 0-100 μM, 1.5 mM phosphate, 12.5 mM calcium, pH 7.4, absorbance 550 nm, slope 6-24 min, read-out: Relative Potency
Summary of the method: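 Human plasma spiked with compound (0-100 μM), centrifuged, then brought to final 1.5 mM phosphate and 12.5 mM calcium, pH 7.4. Absorbance at 550 nm read every 3 min for 30 min at rt; inhibition from slopes (6-24 min, absorbance vs log time) relative to blank plasma.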

blood perfusion = assay: In vivo blood perfusion (laser doppler perfusion imaging) in vitamin D3-induced limb ischemia rat model; settings: average blood perfusion recovery vs vehicle and sham (sham 100%), SD rats, 30 mg/kg s.c. daily D1-D5
Protocol: (§1) The effects of compounds 1, 6, 9, 14, 18, 31, and 39 over blood perfusion and tissue calcification after the inception of limb ischemia were tested using a rat model for a duration of 5 days. Limb ischemia was induced to all groups from D1 to D3 excepting the sham group, to which no ischemia was induced. The animals were administered placebo and active agent formulations from D1 to D5. Observations were taken at several points during the treatment from D0 to D5. All animals were weighed every day before treatment. Seventy-two male Sprague Dawley (SD) rats (Envigo Corp., Huntingdon, GB) weighing approximately 150-200 g were used. The rats were fed with a […]® Rod14-H diet ([…] GmbH, Soest, DE). The rats were divided in 9 groups, 8 animals per group, as follows: • Group 1-Control (Sham) • Group 2-Physiological saline solution • Group 3-Compound 1 • Group 4-Compound 6 • Group 5-Compound 9 • Group 6-Compound 14 • Group 7-Compound 18 • Group 8-Compound 31 • Group 9-Compound 39 Limb ischemia was induced in the rats of groups 2-9 by subcutaneous administration of 150,000 IU/kg vitamin D3 (cholecalciferol, Duphafral D3 1000; Zoetis Inc., Parsippany, NJ, US) in physiological saline solution (2 mL/kg) every day during D1 to D3. The rats of group 1 were not administered vitamin D3. The rats in groups 1 and 2 were administered 2 mL/kg of physiological saline solution daily from D1 to D5 via subcutaneous route. The animals in groups 3-9 were administered subcutaneously 30 mg/kg of compounds 1, 6, 9, 14, 18, 31, and 39, respectively, in physiological saline solution (2 mL/kg), every day from D1 to D5. Limb functional and ischemia status were evaluated by using a laser doppler perfusion imaging apparatus PeriCam PSI Normal Resolution (Perimed AB, Järfälla, SE) in all groups at D0 and D5. The perfusion difference and perfusion ratio were calculated by comparing the baseline and either D0 or D5 readings for each group. In addition, the blood perfusion ratio of each treatment group (i.e., groups 2 to 9) to sham group was also calculated. All rats of groups 1-9 were sacrificed on D5 30 minutes after dosing for determining their Ca baseline values. The animals were anesthetized by isoflurane inhalation. The whole aorta, carotids, femoral arteries, heart, and right kidney of the subjects were collected for calcium content measurement. The tissues were lyophilized for 48-72 h and weighed. The lyophilized tissues were then digested using a 1:1 HNO3:HClO4 mixture in a dry bath incubator for 2-4 h at 180° C. The digested tissues were subsequently diluted using ultra-pure MilliQ® water (MilliporeSigma (Merck KGaA), Burlington, MA, US) to a final volume of 5 mL (i.e., for femoral arteries and carotids) of 10 mL (i.e., for heart, kidneys, and aorta). Calcium content was quantified via inductively coupled plasma optical emission spectrometry (ICP-OES) using an Optima 7300 DV ICP-OES System spectrometer (PerkinElmer, Inc., Waltham, MA, US) according to the manufacturer's instructions. Average blood perfusion recovery compared to vehicle and sham were also calculated. Recovery for sham was 100%. Blood perfusion recovery calculated was using the following equation: 100-((BP sham-BP new drug)/(BP sham-BP vehicle)*100).

tissue calcification = assay: In vivo tissue calcification (calcium content by ICP-OES) in vitamin D3-induced limb ischemia rat model; settings: SD rats, vitamin D3 150,000 IU/kg s.c. D1-D3, 30 mg/kg s.c. daily D1-D5, sacrifice D5; for Inhibition of calcification (%) Femoral: femoral arteries; for Inhibition of calcification (%) Kidney: right kidney
Protocol: as §1, with “D5.” for “D5. Limb functional and ischemia status were evaluated by using a laser doppler perfusion imaging apparatus PeriCam PSI Normal Resolution (Perimed AB, Järfälla, SE) in all groups at D0 and D5. The perfusion difference and perfusion ratio were calculated by comparing the baseline and either D0 or D5 readings for each group. In addition, the blood perfusion ratio of each treatment group (i.e., groups 2 to 9) to sham group was also calculated.”

SMILES	EC50 [1] [µM]	BP recovery (%) (blood perfusion)	Inhibition of calcification (%) Aorta (tissue calcification)	Inhibition of calcification (%) Carotid (tissue calcification)	Inhibition of calcification (%) Femoral (tissue calcification)	Inhibition of calcification (%) Heart (tissue calcification)	Inhibition of calcification (%) Kidney (tissue calcification)
O=P([O-])([O-])O[C@@H]1[C@@H](OCCCCCO)[C@H](OP(=O)([O-])[O-])[C@H](OP(=O)([O-])[O-])[C@H](OP(=O)([O-])[O-])[C@H]1OCCCCCO.[Na+].[Na+].[Na+].[Na+].[Na+].[Na+].[Na+].[Na+] [Compound 6, 4,6-O-bis(5-hydroxypentyl)-myo-inositol-1,2,3,5-tetrakis(phosphate) octasodium salt]	≤ 5	Over (Average blood perfusion recovery over or under 25%.)	Over (Average inhibition percentage over or under 25% inhibition of calcification.)	Under (Average inhibition percentage over or under 25% inhibition of calcification.)	Over (Average inhibition percentage over or under 25% inhibition of calcification.)	Over (Average inhibition percentage over or under 25% inhibition of calcification.)	Over (Average inhibition percentage over or under 25% inhibition of calcification.)
O=C([O-])CCCCCO[C@@H]1[C@@H](OP(=O)([O-])[O-])[C@H](OCCCCCC(=O)[O-])[C@@H](OP(=O)([O-])[O-])[C@@H](OP(=O)([O-])[O-])[C@H]1OP(=O)([O-])[O-].[Na+].[Na+].[Na+].[Na+].[Na+].[Na+].[Na+].[Na+].[Na+].[Na+] [Compound 18, 4,6-O-bis(5-carboxypentyl)-myo-inositol-1,2,3,5-tetrakis(phosphate) decasodium salt]	≤ 5	Over (Average blood perfusion recovery over or under 25%.)	Under (Average inhibition percentage over or under 25% inhibition of calcification.)	Under (Average inhibition percentage over or under 25% inhibition of calcification.)	Under (Average inhibition percentage over or under 25% inhibition of calcification.)	Over (Average inhibition percentage over or under 25% inhibition of calcification.)	Over (Average inhibition percentage over or under 25% inhibition of calcification.)
O=C([O-])CCn1cc(CO[C@@H]2[C@@H](OP(=O)([O-])[O-])[C@H](OCc3cn(CCC(=O)[O-])nn3)[C@@H](OP(=O)([O-])[O-])[C@@H](OP(=O)([O-])[O-])[C@H]2OP(=O)([O-])[O-])nn1.[Na+].[Na+].[Na+].[Na+].[Na+].[Na+].[Na+].[Na+].[Na+].[Na+] [Compound 31, 4,6-O-bis((1-(2-carboxyethyl)-1H-1,2,3-triazol-4-yl)methyl)-myo-inositol-1,2,3,5-tetrakis(phosphate) decasodium salt]	≤ 5	Over (Average blood perfusion recovery over or under 25%.)	Over (Average inhibition percentage over or under 25% inhibition of calcification.)	Under (Average inhibition percentage over or under 25% inhibition of calcification.)	Over (Average inhibition percentage over or under 25% inhibition of calcification.)	Over (Average inhibition percentage over or under 25% inhibition of calcification.)	Over (Average inhibition percentage over or under 25% inhibition of calcification.)
NCCCCCO[C@@H]1[C@@H](OP(=O)([O-])[O-])[C@H](OCCCCCN)[C@@H](OP(=O)([O-])[O-])[C@@H](OP(=O)([O-])[O-])[C@H]1OP(=O)([O-])[O-].[Na+].[Na+].[Na+].[Na+].[Na+].[Na+].[Na+].[Na+] [Compound 14, 4,6-O-bis(5-aminopentyl)-myo-inositol-1,2,3,5-tetrakis(phosphate) octasodium salt]	≤ 5	Over (Average blood perfusion recovery over or under 25%.)	Under (Average inhibition percentage over or under 25% inhibition of calcification.)	Under (Average inhibition percentage over or under 25% inhibition of calcification.)	Over (Average inhibition percentage over or under 25% inhibition of calcification.)	Over (Average inhibition percentage over or under 25% inhibition of calcification.)	Over (Average inhibition percentage over or under 25% inhibition of calcification.)
